These results are taken from patent US20260258057A1, “CRYSTAL OF BORATE DERIVATIVE, METHOD FOR PREPARING SAME, AND USE THEREOF” (Reistone Biopharma Company Limited, priority 2022, published 2026).

The subject of series [1] is IL-23 secretion in DC cells. Put plainly: Inhibition of Zymosan-stimulated IL-23 secretion in DC cells differentiated from human mononuclear cells. In kind it is cell-based. The note with it: Zymosan 200 μg/ml, 24 hours, ELISA. On the procedure: Day 0: Mononuclear cells were isolated from fresh human peripheral blood and purified, and then resuspended in RPMI-1640 complete medium. When differentiation into DC cells took place, IL-4 at a concentration of 50 ng/ml and GM-CSF at 100 ng/ml were added to the medium, and the cells were cultured at a density of 1×10^6 cells/mL in a culture dish with a diameter of 100 mm for differentiation in an incubator at 37° C. with a carbon dioxide concentration of 5%. Day 3: Half the volume of RPMI complete medium was replaced with fresh RPMI complete medium, and the concentrations of IL-4 and GM-CSF were maintained at 50 ng/ml and 100 ng/ml respectively. Day 6: Non-adherent cells (DC cells) in the culture dish were collected and washed with PBS. The washed DC cells were resuspended with RPMI complete medium at a density of 1×10^6 cells/mL. Then, 1×10^5 DC cells were added to each well of the 96-well cell culture plate and pre-incubated for 1 hour with different dilutions of the compounds to be tested (or DMSO blank negative control at an equivalent concentration), followed by addition of 200 μg/ml of TLR2 agonist Zymosan to stimulate the DC cells for 24 hours. Day 7: After the DC cells were stimulated by Zymosan for 24 hours, the supernatant in each well of the 96-well plate was collected and detected by ELISA for the concentration of IL-23.
(In general: An ELISA detects its analyte on a solid surface through an enzyme-linked reagent.)

Series [2] relates to imiquimod-induced mouse model of psoriasis. Kind of series: Imiquimod-induced psoriasis suppression assay. On the set-up: key to Erythema score, Mean / Psoriasis score, Mean / Thickness score, Mean: 0-5 scale, higher = more severe; key to Total clinical score, Mean: sum of 0-5 component scores; higher = more serious disease. Conditions: for Ratio of spleen to body weight, Mean: Day 7, percentage of spleen to body weight; for Erythema score, Mean / Psoriasis score, Mean / Thickness score, Mean: Days 1-7; for Total clinical score, Mean: Days 1-7, endpoint of the experiment; for Effect on clinical score at the endpoint of the experiment / Effect on the ratio of spleen to body weight / Effect on the increase in skin thickness: Compound A 0.03%, versus model group; for Effect on clinical score at the endpoint of the experiment: each dose of Compound I (0.01%, 0.03%, 0.1%); for Effect on the ratio of spleen to body weight: three dose groups of Compound I; for Effect on the increase in skin thickness: Compound I low and high dose groups. In kind it is in vivo, Balb/c female mice. The text has this:
An appropriate amount of Compound I was formulated into an ointment with the following components: 0.1% of Compound I, 9% of hexanediol, 78.8% of white petrolatum, 5% of paraffin, 7% of glyceryl mono- and di-stearate, and 0.1% of dihydroxybutyl toluene, which were mechanically stirred until an ointment was formed.
7-Week-old Balb/c female mice were used and the hair on their back in an area of 2 cm×3 cm was shaved the day before the experiment. On Days 1-7 of the experiment, the test compounds were applied on the skin, and after 6 hours, imiquimod (IMQ) ointment (Aldara (5%)) was continuously applied to the back skin of mice for 7 days, so as to establish a mouse model of psoriasis, while the control group was given the same dose of petrolatum ointment. On Days 3, 5 and 7, the severity of skin inflammation was assessed, including measurement of skin thickness, crusting and erythema, scored on a 5-point scale (0-5) respectively. The total score was used to assess the severity of skin inflammation. On Day 7 of the experiment, the spleen was collected and weighed, and the percentage of spleen to body weight was calculated to assess the immunosuppressive effect of the drug.
Normal control group, model control group, low, medium and high dose groups of Compound I (0.01%, 0.03% and 0.1%), and 0.03% reference Compound A group were set up in this experiment.
The total score of the degree of skin inflammation are the clinical score, the indicators of which are relatively subjective, and higher score indicated more serious disease. The degree of increase in skin thickness was an objective assessment indicator, and more increase in thickness indicated more serious disease. The ratio of spleen to body weight was an objective assessment indicator, and smaller ratio of spleen to body weight indicated stronger immunosuppressive effect of the drug.

The target of a further series is T1, PDE4B1 enzyme (Homo sapiens, UniProt Q07343).
T1 construct: purchased BPS 60041
T1 sequence (Q07343 whole entry): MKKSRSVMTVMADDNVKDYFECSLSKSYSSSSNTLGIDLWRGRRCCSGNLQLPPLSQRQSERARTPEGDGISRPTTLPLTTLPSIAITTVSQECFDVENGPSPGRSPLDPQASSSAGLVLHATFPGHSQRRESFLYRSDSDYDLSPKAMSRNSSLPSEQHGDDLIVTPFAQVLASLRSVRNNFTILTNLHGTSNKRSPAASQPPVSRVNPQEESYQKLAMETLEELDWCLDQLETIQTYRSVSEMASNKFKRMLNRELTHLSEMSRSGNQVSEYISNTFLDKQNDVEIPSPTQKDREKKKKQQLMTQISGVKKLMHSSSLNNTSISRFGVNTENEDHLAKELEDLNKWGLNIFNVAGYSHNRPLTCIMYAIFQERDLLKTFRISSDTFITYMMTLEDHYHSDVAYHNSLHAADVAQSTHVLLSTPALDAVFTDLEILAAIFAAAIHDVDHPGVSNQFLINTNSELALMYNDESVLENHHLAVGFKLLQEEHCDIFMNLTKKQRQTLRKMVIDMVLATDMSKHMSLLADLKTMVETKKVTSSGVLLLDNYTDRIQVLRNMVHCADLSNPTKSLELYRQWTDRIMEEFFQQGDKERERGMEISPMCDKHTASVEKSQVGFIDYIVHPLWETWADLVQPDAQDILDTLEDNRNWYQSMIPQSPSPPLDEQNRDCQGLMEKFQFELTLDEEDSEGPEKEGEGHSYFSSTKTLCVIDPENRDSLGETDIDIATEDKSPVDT
Put plainly: In vitro PDE4B enzyme activity detection assay (IMAP FP, FAM-cAMP substrate). The note with it: PDE4B1 0.04 nM, FAM-cAMP 0.1 μM, 25° C. 30 min. Format: biochemical. On the procedure: A stock solution of the compound at a concentration of 10 mM was prepared in a test tube with 90% DMSO (10% water), and it was used to prepare a series of dilutions with a dilution factor of 1:5 and final concentrations starting from 100 μM and lowering to 0.05 nM.
0.2 μl of the solution of the compound was transferred into a 384-well reaction plate, and 0.2 μl of 100% DMSO was transferred into both the negative and positive controls. Then, 10 μl of 2×PDE4B1 enzyme solution (a final concentration of 0.04 nM) was added to the wells, and 10 μl of 1× reaction buffer (50 mM HEPES, pH 7.5, 0.0015% Brij-35) instead of the enzyme solution was added to the wells of the control without enzyme activity. The plate was centrifuged at 1,000 rpm for 1 min and incubated at room temperature for 15 min. Next, 10 μl of 2×FAM-CAMP substrate solution (a substrate final concentration of 0.1 μM) was added to each well of the 384-well reaction plate. The plate was centrifuged at 1,000 rpm for 1 min, and the reaction was carried out at 25° C. for 30 min. […]
After completion of the incubation, the RLU data were read and the inhibition rate was calculated. The IC50 value was calculated from the concentration-inhibition fitted curve, wherein the maximum value refers to the reading of the DMSO control and the minimum value refers to the reading of the control without enzyme activity.

Another series concerns TNF-α release in PBMCs. Put plainly: Inhibition of LPS-induced TNF-α release in peripheral blood mononuclear cells. In kind it is cell-based. Conditions: PBMC; LPS 0.1 ng/ml, 24 hours, ELISA. On the procedure: Frozen PBMCs were thawed and detected by Trypan blue staining for cell viability and number. The thawed PBMCs were washed with RPMI1640 complete medium (RPMI1640+10% FBS+1% PS) and centrifuged, and the supernatant was discarded. The PBMCs were resuspended with RPMI1640 complete medium and the cell density was adjusted to 2×10^6 cells/mL. 2×10^5 PBMC cells were plated in a 96-well cell culture plate, and the compounds to be tested were added at different concentrations, in a 1:5 serial dilution of 9 concentrations starting from a maximum compound concentration of 100 μM, each in duplicate wells. LPS was added at a final concentration of 0.1 ng/ml, making a total volume of 200 μL. For the negative and positive controls, only LPS and DMSO were added to the negative control wells, while 1 μg/mL of dexamethasone as a positive control was added to the positive control wells in addition to cells and LPS. The cells were incubated for 24 hours in an incubator at 37° C. After completion of the incubation, 100 μL of cell culture supernatant was collected and detected by ELISA for the TNF-α level. 100 μL of CellTiter-Glo was added to the remaining cells in each well to detect the level of cell viability. The IC50 values of inhibition on TNF-α release by the compounds were calculated.

A short description of series [3]: Stability test I of crystal form A (temperature and humidity; HPLC and XRPD). Format: physicochemical. On the procedure: (§1) 5. High performance liquid chromatography (HPLC) described in the stability test of the crystal form A of the present disclosure is determined on Agilent 1260 Infinity II under the following HPLC conditions: chromatographic column of Agilen XDB C18 5 μm 4.6×250 mm; mobile phase of A—0.05% TFA (in water), and B—ACN; flow rate of 1.0 ml/min; wavelength of 220 nm.
It is determined whether temperature and humidity have an influence on the stability of crystal form A of the compound of formula I.
The crystal form A was placed in a stabilizing chamber for accelerated stability tests under a series of temperature and humidity combinations. After being placed for different days under various temperature and humidity conditions, the samples were taken out and compared with the initial crystal form A. The content of the compound of formula I was determined by high performance liquid chromatography, and XRPD detection was performed.

The nature of series [4]: Stability test II of crystal form A (light; HPLC and XRPD). In kind it is physicochemical. On the procedure: as §1
It is determined whether light has an influence on the stability of crystal form A of the compound of formula I.
The crystal form A was placed in a light stabilizing chamber, and taken out after reaching ICH strength. The resulting solid was compared with the initial crystal form A. The content of the compound of formula I was determined by high performance liquid chromatography, and XRPD detection was performed.

Series [5] is described as follows: Dynamic vapor sorption (DVS) hygroscopicity. Format: physicochemical. An excerpt:
The ‘9103 Guidelines for Hygroscopicity of Drugs’ in Volume IV of the 2015 edition of Chinese Pharmacopoeia describes the characteristics of hygroscopicity and defines the weight gain by hygroscopicity as follows, • deliquescent: absorbing sufficient moisture to form a liquid; • extremely hygroscopic: the weight gain by hygroscopicity being no less than 15%; • hygroscopic: the weight gain by hygroscopicity being less than 15% but not less than 2%; • slightly hygroscopic: the weight gain by hygroscopicity being less than 2% but not less than 0.2%; • no or almost no hygroscopic: the weight gain by hygroscopicity being less than 0.2%.
The detection is performed using SMS Intrinsic PLUS at 25° C., with humidity change of 50%-0%-90% with a step size of 10%, in which the criteria for judging is that the mass change dM/dT for each gradient is less than 0.0002%, TMAX is 360 min, and two cycles are performed.

What is called IC50 is the midpoint of a concentration-inhibition curve. Regarding `CCCOc1cc(-c2cncc([C@@H]3COB(O)C3)c2)ccc1OC` [Compound A, reference compound], in series [1], the IC50 is 0.61 nM. In series [2] (0.03% applied on skin), the “Ratio of spleen to body weight, Mean” value came to 0.96; the “Erythema score, Mean” value came out at 3.33; the “Psoriasis score, Mean” value turned out to be 2.5; the “Thickness score, Mean” value turned out to be 2.5. In addition, the “Total clinical score, Mean” value in series [2] (0.03% applied on skin) came out at 8.33. Moreover, in series [2], the “Effect on clinical score at the endpoint of the experiment” value is listed as “significantly reduce”, the “Effect on the ratio of spleen to body weight” value was “no significant effect” and the “Effect on the increase in skin thickness” value is reported as “no significant effect”.

As for `COc1ccc(-c2cncc([C@@H]3COB(O)C3)n2)c2c1OC(C)(C)CC2` [Compound I, (R)-4-(6-(8-methoxy-2,2-dimethylbenzodihydropyran-5-yl)pyrazin-2-yl)-1,2-oxaborocyclopentan-2-ol], the IC50 in series [1] is 0.018 nM. Besides, on PDE4B1 enzyme, the IC50 was 0.17 nM. The molecule also returned an IC50 in the series on TNF-α release in PBMCs of 0.055 nM. For the same molecule, in series [2] (0.01% applied on skin), the “Ratio of spleen to body weight, Mean” value worked out at 0.64; the “Erythema score, Mean” value was found to be 4; the “Psoriasis score, Mean” value is on record as 3.13; the “Thickness score, Mean” value amounted to 2.38. Also, the “Total clinical score, Mean” value in series [2] (0.01% applied on skin) stood at 9.5. In addition, the “Inhibitory effect on the increase in skin thickness compared with Compound A at the same dose” value in series [2] (0.03%) was “significantly higher”. In series [2] (0.03% applied on skin), the “Ratio of spleen to body weight, Mean” value was 0.43; the “Erythema score, Mean” value is recorded as 3.86; the “Psoriasis score, Mean” value amounted to 2.14; the “Thickness score, Mean” value was found to be 1.57. The “Total clinical score, Mean” value in series [2] (0.03% applied on skin) was determined as 7.57. In addition, in series [2] (0.1% applied on skin), the “Ratio of spleen to body weight, Mean” value was determined as 0.31; the “Erythema score, Mean” value worked out at 3.63; the “Psoriasis score, Mean” value is reported as 1.38; the “Thickness score, Mean” value was 1.75. In addition, in series [2] (0.1% applied on skin), the “Total clinical score, Mean” value is listed as 6.75. In series [2], the “Effect on clinical score at the endpoint of the experiment” value is “significantly reduce”, the “Effect on the ratio of spleen to body weight” value was “significantly reduce” and the “Effect on the increase in skin thickness” value was “significantly inhibit”.

Molecule `O=C(Nc1c(Cl)cncc1Cl)c1ccc(OC(F)F)c(OCC2CC2)c1` [Roflumilast] showed a concentration for half-maximal inhibition (IC50) in series [1] of 12.9 nM.

As to `COc1ccc(-c2cncc([C@@H]3COB(O)C3)n2)c2c1OC(C)(C)CC2` [crystal form A, (R)-4-(6-(8-methoxy-2,2-dimethylbenzodihydropyran-5-yl)pyrazin-2-yl)-1,2-oxaborocyclopentan-2-ol], the Purity is recorded as 98.01% in series [3] (55 °C, 30% humidity, 18 days); 97.40% in series [3] (55 °C, 79% humidity, 20 days); 97.74% in series [3] (65 °C, 11% humidity, 20 days); 96.16% in series [3] (65 °C, 50% humidity, 20 days); 95.86% in series [3] (65 °C, 75% humidity, 20 days); 97.33% in series [3] (70 °C, 11% humidity, 20 days). The Purity in series [3] (75 °C, 0% humidity, 20 days) is 97.41%; in series [3] (75 °C, 50% humidity, 7 days), 96.57%; in series [3] (initial, 0 days), 97.99%; in series [4] (At 0), 97.99%; in series [4] (Light-0.5 ICH), 97.76%; in series [4] (Light-1.0 ICH), 97.15%. Further, the “Overall stability under temperature and humidity combinations” value in series [3] (accelerated stability tests, Table 4 conditions) is “remains unchanged and exhibits good stability”. Moreover, the “Weight gain by hygroscopicity” value in series [5] (accelerated experimental conditions, 70% RH) is reported as “approximately 0.15%”; in series [5] (extreme conditions, 90% RH), “approximately 0.70%”; in series [5] (normal storage conditions, 25° C., 60% RH) it was “approximately 0.08%”. The “Crystal form before and after DVS detection (XRPD)” value in series [5] (after DVS, humidity 0% to 90% RH) was “does not change”.
